Results on five compounds are retold here after paper PMC4965013, “Open Source Drug Discovery with the Malaria Box Compound Collection for Neglected Diseases and Beyond” (PLoS Pathogens, 2016).

Data set [1] has as its system Saccharomyces cerevisiae ABC16-Monster. The data set can be described thus: S. cerevisiae ABC16-Monster growth inhibition. It counts as cell-based. Particulars: ABC16MONSTER, read-out: S. cerevisiae strain ABC16-Monster in YPD % inhibition. The protocol:
Column EA: Suzuki group (data presented first in this paper). Screening of MMV compounds for Saccharomyces cerevisiae ABC16-Monster growth inhibition. Methods: Compounds were added at 100 micromolar to YPD medium (1% yeast extract, 2% peptone, and 2% glucose). Only the solvent dimethyl sulfoxide (DMSO) without any MMV compound was added at 1% to the negative control. The initial density of ABC16-Monster cells corresponded to optical density at 600 nanometers (OD600) of 0.01. Cells were cultured without agitation in a 96-well plate at 30 degrees Celsius for 18 hours and then resuspended for measurement of OD600. For each compound, two cultures were conducted and examined. The average OD600 value was used. To calculate percent inhibition, OD600 for cells cultured with a compound was divided by OD600 for the negative control. The ABC16-Monster yeast strain was previously described.

A short description of data set [2]: Plasma protein binding mouse. Particulars: CD-1, mouse. It counts as in vitro ADME. The protocol: Columns GD-GJ: Wuxi Inc. data for MMV (data presented first in this paper) PK/DMPK Parameters: Fasted animals (Male CD-1 mouse, 7-9 weeks age, 30±10 g, n=3) obtained from an approved vendor (SLAC Laboratory Animal Co. Ltd., Shanghai, China or Sino-British SIPPR/BK Laboratory Animal Co. Ltd Shanghai, China) were administered with a single oral dose (140 μmol/kg) using DMSO: 1% HPMC (5:95) as a vehicle. Blood sampling was performed via the submandibular or saphenous vein (t=0.083, 0.25, 1, 2, 4, 6 and 9 h) and transferred into microcentrifuge tubes containing Sodium Heparin (1,000 IU/ml) as anti-coagulant placed on wet ice until processed for plasma by centrifugation at approximately 4°C, 3000×g for 15 min. Plasma samples were stored in polypropylene tubes, quick frozen over dry ice and kept at -70±10°C until LC/MS/MS analysis. LC/MS/MS methods for the quantitative determination compounds plasma levels were developed with an internal standard. […] (Phoenix WinNonlin, version 6.2.1, Pharsight, Mountain View, CA) and expressed as Cmax & AUC0-last. […] AUC0-last is the area under the curve expressed as >12 h*μM (Yes or No). Plasma protein binding assay (PPB) (CD-1 mouse and human) expressed as <95% bound, >95% bound, or >99% bound. Kinetic Solubility at pH 7.4 was determined by liquid chromatography/chemiluminescence nitrogen detection (LC/CLND) and was scored as greater than 20µM (Yes or No). hERG inhibition was measured at 11µM by the QPatch- HT system and is expressed as “Yes” if greater than 45% inhibited at 11µM and “No” if less than or equal to 45% inhibited at 11µM. As part of the Drug-Drug Interaction studies (DDI issues), 5 human and 1 mouse CYP isoforms (1A2, 2C9, 2C19, 2D6, 3A4-M, 3A4-T) were tested for inhibition assay at 10 µM. […] Otherwise DDI issues were scored as “No”. Positive and negative controls were run for each assay (Table 1).

For another data set, the system named is P. falciparum Dd2. The data set can be described thus: Malaria Sybr Green I Fluorescence assay Dd2 Horrocks. It counts as cell-based. The settings on record: Plasmodium falciparum, DD2, 48 h; read-out: P. falciparum Dd2 asexual blood stage EC50 Horrocks. The method in brief:
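Dd2 asexual parasites started at 2% trophozoite-stage parasitaemia and 2% hematocrit; growth read by SYBR Green I fluorescence after 48 h. IC50 values taken from log dose-response curves.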

The subject of another data set is S. mansoni adult worms. The data set can be described thus: S. mansoni adult worms LSHTM Bickle. It counts as cell-based, Schistosoma mansoni. Particulars: 15 μM. As to the method: Columns DI-DJ, DL: Bickle group. (columns DI and DL data presented first in this paper, column DJ partially published in ref [95].). […] Male CD1 mice (aged 5–6 weeks) were bred on site using SPF conditions with access of food and water ab libitum. Worms were obtained by portal perfusion of CD1 mice (Charles River, UK) 6 weeks post-infection and 3 worm pairs added to the wells of 48 well plates (Nunc, UK) in 1 ml complete DMEM medium supplemented with 10% fetal calf serum (Gibco, UK), 2 mM L-glutamine, 100 U/ml penicillin, 100 µg/ml streptomycin (cDMEM). A primary adult worm screen was performed in which 400 MMV compounds were tested at 15 µM in 0.15% DMSO. Negative controls contained worms cultured in cDMEM alone and in cDMEM with 0.15% DMSO. Positive control wells contained worms cultured in Praziquantel (Sigma-Aldrich, UK) at 10 µM. Cultures were incubated at 37 °C and 5% CO2. Effects were assessed on day 5 of culture using an inverted microscope (Leitz Diavert Wetzlar, Germany). Any compounds producing complete immobility or ≥ 70% worm motility inhibition plus severe morphological damage were considered hits in the primary screen. […] IC50 for the compounds was calculated using Microsoft XLfit version 5.1.0.0 (2006-2008 ID Business Solutions Ltd). In vitro screening of S. mansoni schistosomula run at LSHTM (London): Schistosomula were prepared as previously reported with the modification of using a 45% and 70% Percoll gradient and the cercarial heads recovered from the 70% layer. All centrifugation steps were done at 350 xg. An appropriate volume of drug Stock was pre-added to wells in 96-well microtiter culture plates (Nunc, UK) containing 100 µl complete M169 (cM169). The wells were then topped up with another 100 µl of cM169 containing 100 schistosomula to give final concentrations of 15 µM of compound per well. Negative controls contained larvae cultured in cM169 alone and in cM169 with 0.5% DMSO. Positive control wells contained schistosomula cultured in Praziquantel (Sigma-Aldrich, UK) at 10 µM. Cultures were incubated at 37 °C and 5% CO2. Effects were assessed on day 3 of culture using an inverted microscope (Leitz Diavert Wetzlar, Germany). Any compounds producing complete immobility or ≥ 70% motility inhibition plus severe morphological damage were considered hits in the larval screen.

For orientation: inhibition means the drop in the measured response relative to a control, in per cent. A word on the fraction unbound: it is the share of the substance not bound to proteins or other matrix. A low value points to extensive binding. In general, EC50 refers to the concentration at which the effect is half-maximal. Consider `CCN(CC)c1cc(C)c2cc(NC(=O)c3cccc(OC)c3)ccc2n1` [MMV000498], for which the inhibition at 100 µM in data set [1] was -6%. In addition, in data set [2], the fraction unbound was under 0.01. The EC50 with P. falciparum Dd2 turned out to be 2770 nM. The “Schistosoma mansoni adult worm primary assay % Motility Reduction (Hit ≥ 70%)” value in the data set with S. mansoni adult worms is 0%.

With `COc1cc2cc(C(=O)Nc3ccccc3)c(N)nc2cc1OC` [MMV006767], in data set [1], the inhibition at 100 µM worked out at 24%. Moreover, the fraction unbound in data set [2] is over 0.05. Besides, the EC50 with P. falciparum Dd2 amounted to 884 nM. Moreover, in the data set on S. mansoni adult worms, the “Schistosoma mansoni adult worm primary assay % Motility Reduction (Hit ≥ 70%)” value came to 0%.

On to `CCN1CCN(c2cc(C)c3cc(NC(=O)c4ccc(OC)c(OC)c4)ccc3n2)CC1` [MMV019074], for which the inhibition at 100 µM in data set [1] was found to be 3.48%. Moreover, the fraction unbound in data set [2] was under 0.05. The EC50 with P. falciparum Dd2 stood at 1850 nM. The “Schistosoma mansoni adult worm primary assay % Motility Reduction (Hit ≥ 70%)” value in the data set on S. mansoni adult worms was found to be 25%.

As for `COc1ccc(C(=O)Nc2ccc3nc(N4CCCCC4)cc(C)c3c2)cc1OC` [MMV019758], the inhibition at 100 µM in data set [1] is -8%. This compound displayed a fraction unbound in data set [2] of under 0.01. In addition, in the data set on P. falciparum Dd2, the EC50 amounted to 614 nM. Also, in the data set on S. mansoni adult worms, the “Schistosoma mansoni adult worm primary assay % Motility Reduction (Hit ≥ 70%)” value amounted to 50%.

In the case of `CCOC(=O)c1cnc2ccc(OC)cc2c1NCc1ccccc1` [MMV665813], in data set [1], the inhibition at 100 µM was -1.7%. For the same compound, the fraction unbound in data set [2] is under 0.01. In the data set on P. falciparum Dd2, the half-maximal effective concentration (EC50) is 4890 nM. For the same compound, the “Schistosoma mansoni adult worm primary assay % Motility Reduction (Hit ≥ 70%)” value in the data set on S. mansoni adult worms was found to be 0%.
